As a reminder, the IC50 is the point on the concentration scale where inhibition reaches its midpoint. A high value points to weaker potency.

In US8227511B2, “Substituted chromanol derivatives and their use” (Bayer Intellectual Property GmbH, priority 2006, dated 2012) one finds IC50 data, which are given here for twelve molecules.

For assay [1], the target named is T1, CETP (Homo sapiens, UniProt P11597).
T1 construct: CETP is obtained in partially purified form from human plasma by differential centrifugation and column chromatography and used for the test; from tissue; host or cells: human plasma
T1 sequence (P11597 18-493): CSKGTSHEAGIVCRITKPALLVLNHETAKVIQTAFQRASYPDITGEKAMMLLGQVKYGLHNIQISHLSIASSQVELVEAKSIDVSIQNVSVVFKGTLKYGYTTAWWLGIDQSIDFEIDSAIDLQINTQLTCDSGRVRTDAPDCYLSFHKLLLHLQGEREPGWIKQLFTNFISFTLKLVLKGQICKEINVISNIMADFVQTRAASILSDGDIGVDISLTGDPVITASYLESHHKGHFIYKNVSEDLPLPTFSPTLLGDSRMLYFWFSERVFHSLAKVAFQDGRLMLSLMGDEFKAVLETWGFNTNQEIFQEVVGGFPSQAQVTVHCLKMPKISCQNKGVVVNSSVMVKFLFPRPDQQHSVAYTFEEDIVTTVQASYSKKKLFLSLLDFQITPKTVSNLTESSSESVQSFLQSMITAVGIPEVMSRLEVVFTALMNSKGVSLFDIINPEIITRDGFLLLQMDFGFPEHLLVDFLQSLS
Kind of assay: CETP fluorescence test with enriched CETP. The format is biochemical. To be noted: enriched CETP fraction from human plasma; transfer of fluorescent cholesterol ester between liposomes; 37° C. for 4 h. As for the experimental part: (§1) CETP is obtained in partially purified form from human plasma by differential centrifugation and column chromatography and used for the test. To this end, human plasma is adjusted to a density of 1.21 g per ml using NaBr and centrifuged at 4° C. at 50 000 rpm for 18 h. The bottom fraction (d>1.21 g/ml) is applied to a Phenyl-Sepharose 26/10 HP fast flow-column (Pharmacia), washed with PBS buffer and then eluted with distilled water. 10 parts of PBS buffer and 1% (w/v) BSA are added to the eluate. The CETP-active fractions are pooled.
Measurement of the CETP-catalyzed transfer of a fluorescent cholesterol ester between liposomes [modified according to the procedure of Bisgaier et al., J. Lipid Res. 34, 1625 (1993)]:
For the production of the donor liposomes, 1 mg of cholesteryl 4,4-difluoro-5,7-dimethyl-4-bora-3a,4a-diaza-s-indacene-3-dodecanoate (cholesteryl BODIPY® FL C12, Molecular Probes) is dissolved in 2 ml of chloroform with 5.35 mg of triolein and 6.67 mg of phosphatidylcholine. The solvent is removed at medium temperature in a SpeedVac and the residue is dried under high vacuum for 1 h. The residue is then dissolved in 600 μl of dioxane with gentle warming in an ultrasonic bath and this solution is added very slowly with ultrasonication to 63 ml of 50 mM Tris/HCl, 150 mM NaCl, 2 mM EDTA buffer pH 7.3 at room temperature. The suspension is then ultrasonicated under an N2 atmosphere for 30 minutes in the Branson ultrasonic bath at about 50 watts, the temperature being kept at about 20° C.
The acceptor liposomes are obtained analogously from 86 mg of cholesteryl oleate, 20 mg of triolein and 100 mg of phosphatidylcholine dissolved in 1.2 ml of dioxane and 114 ml of the above buffer by ultrasonication at 50 watts (20° C.) for 30 minutes.
For testing, a test mix consisting of 1 part of above buffer, 1 part of donor liposomes and 2 parts of acceptor liposomes is used.
50 μl of test mix are treated with 48 μl of enriched CETP fraction (1-3 μg), obtained from human plasma by means of hydrophobic chromatography, and 2 μl of a solution of the substance to be investigated in DMSO and incubated at 37° C. for 4 h.
The change in the fluorescence at 485/535 nm is a measure of the CE transfer; the inhibition of the transfer in comparison to the control batch without substance is determined.

Assay [2] deals with T1, CETP. Put plainly: CETP-SPA test. The format is biochemical. To be noted: transfer of 3H-cholesterol ester from human HDL to biotinylated LDL; 37° C. for 18 h. Here is the method: as §1
For testing of the CETP activity, the transfer of ^3H-cholesterol ester from human HD lipoproteins to biotinylated LD lipoproteins is measured. The reaction is ended by addition of streptavidin-SPA® beads (Amersham) and the transferred radioactivity is determined directly in a liquid scintillation counter.
In the test batch, 10 μl of HDL-3H-cholesterol ester (about 50 000 cpm) are incubated at 37° C. for 18 h with 10 μl of biotin-LDL (Amersham) in 50 mM Hepes/0.15 M NaCl/0.1% bovine serum albumin (RSA)/0.05% NaN3 pH 7.4 containing 10 μl of CETP (1 mg/ml) and 3 μl of a solution of the substance to be tested (dissolved in 10% DMSO/1% RSA). 200 μl of the SPA-streptavidin bead solution (TRKQ 7005) are then added, incubated further with shaking for 1 h and then measured in a scintillation counter. Corresponding incubations with 10 μl of buffer, 10 μl of CETP at 4° C. and 10 μl of CETP at 37° C. serve as controls.
The activity transferred in the control batches with CETP at 37° C. is rated as 100% transfer. The substance concentration at which this transfer is reduced to half is specified as the IC50 value.

For the molecule `CC(C)c1cc2c(c(-c3ccc(F)cc3)c1[C@H](F)c1ccc(C(F)(F)F)cc1)[C@@H](O)CC1(CC1)O2` [Example 58], the IC50 is 300 nM in assay [1] and 68 nM in assay [2].

As to `O[C@@H](c1ccc(C(F)(F)F)cc1)c1c(C2CCCC2)cc2c(c1-c1ccc(F)cc1)[C@@H](O)CC1(CCC1)O2` [Example 45], the figures for the IC50 in assay [1] and in assay [2] were 26 nM and 21 nM, respectively.

Turning to `CC(C)c1cc2c(c(C3CCCC3)c1[C@H](F)c1ccc(C(F)(F)F)cc1)[C@@H](O)CC1(CCC1)O2` [Example 43, (4S)-5-cyclopentyl-6-{(R)-fluoro[4-(trifluoromethyl)phenyl]methyl}-7-isopropyl-3,4-dihydrospiro-[chroman-2,1′-cyclobutan]-4-ol], the half-inhibitory concentration (IC50) turned out to be 61 nM in assay [1] and 100 nM in assay [2].

Regarding `CC(C)c1cc2c(c(-c3ccc(F)cc3)c1[C@@H](O)c1ccc(C(C)(C)C)cc1)[C@@H](O)CC1(CCC1)O2` [Example 34, (4S)-6-[(S)-(4-tert-Butylphenyl)(hydroxy)methyl]-5-(4-fluorophenyl)-7-isopropyl-3,4-dihydro-spiro[chromen-2,1′-cyclobutan]-4-ol], the IC50 in assay [1] amounted to 14 nM; in assay [2], 5 nM.

Turning to `CC(C)c1cc2c(c(-c3ccc(F)cc3)c1C(=O)c1ccc(OC(F)(F)F)cc1)[C@@H](O)CC1(CCC1)O2` [Example 37, [(4S)-5-(4-Fluorophenyl)-4-hydroxy-7-isopropyl-3,4-dihydrospiro[chromen-2,1′-cyclobutan]-6-yl]-[4-(trifluoromethoxy)phenyl]methanone], the figures for the 50% inhibitory concentration (IC50) in assay [1] and in assay [2] were 36 nM and 30 nM, respectively.

For the molecule `O=C(c1ccc(C(F)(F)F)cc1)c1c(C2CCCC2)cc2c(c1-c1ccc(F)cc1)[C@@H](O)CC1(CCC1)O2` [Example 44], the IC50 in assay [1] was 45 nM; in assay [2], 31 nM.

As to `CC(C)c1cc2c(c(-c3ccc(F)cc3)c1C(=O)c1ccc(C(F)(F)F)cc1)[C@@H](O)CC1(CCC1)O2` [Example 27, [(4S)-5-(4-Fluorophenyl)-4-hydroxy-7-isopropyl-3,4-dihydrospiro[chromen-2,1′-cyclobutan]-6-yl]-[4-(trifluoromethyl)phenyl]methanone], the figures for the IC50 in assay [1] and in assay [2] were 35 nM and 18 nM, respectively.

As to `CC(C)c1cc2c(c(-c3ccc(F)cc3)c1C(=O)c1ccc(C(C)(C)C)cc1)[C@@H](O)CC1(CCC1)O2` [Example 33, (4-tert-Butylphenyl)[(4S)-5-(4-fluorophenyl)-4-hydroxy-7-isopropyl-3,4-dihydrospiro[chromen-2,1′-cyclobutan]-6-yl]methanone], the IC50 in assay [1] came out at 59 nM; in assay [2], 16 nM.

With `CC(C)c1cc2c(c(C3=CCCC3)c1[C@@H](O)c1ccc(C(F)(F)F)cc1)[C@@H](O)CC(C)(C)O2` [Example 22, (4S)-5-Cyclopent-1-en-1-yl-6-{(S)-hydroxy[4-(trifluoromethyl)phenyl]methyl}-7-isopropyl-2,2-di-methylchroman-4-ol], the IC50 in assay [1] is 51 nM; in assay [2] it was 57 nM.

For the molecule `CC(C)c1cc2c(c(-c3ccc(F)cc3)c1[C@@H](O)c1ccc(C(F)(F)F)cc1)[C@@H](O)CC1(CC1)O2` [Example 55], the IC50 in assay [1] was 27 nM; in assay [2] it was 4 nM.

As for `CC(C)(C)c1ccc(C(=O)c2c(C3CCCC3)cc3c(c2-c2ccc(F)cc2)[C@@H](O)CC2(CCC2)O3)cc1` [Example 47], the concentration for half-maximal inhibition (IC50) in assay [1] stood at 50 nM; in assay [2], 38 nM.

Regarding `CC(C)c1cc2c(c(-c3ccc(F)cc3)c1C(=O)c1ccc(C(F)(F)F)cc1)[C@@H](O)CC(C)(C)O2` [Example 4, [(4S)-5-(4-Fluorophenyl)-4-hydroxy-7-isopropyl-2,2-dimethyl-3,4-dihydro-2H-chromen-6-yl][4-(trifluoromethyl)phenyl]methanone], the concentration for half-maximal inhibition (IC50) in assay [1] was 90 nM; in assay [2], 62 nM.
